In this assay the test system is Mouse ES cells (J1 strain). Nature of the assay: Hcrt expression in mouse ES cells, SFEB/gfCDM differentiation culture system, RT-PCR. The assay is classed as cell-based. Particulars: 1.0 mM from 7th day of differentiation culturing. The protocol:
Mouse ES cells (J1 strain) which had been maintained in a medium for an ES cell were seeded on a 96-well low adhering round-bottom culture dish (Nunc) so that the cell count became 10,000 cells per well, and cultured with gfCDM [IMDM/F12 (Invitrogen) added with 5 mg/ml BSA (SIGMA), 450 μM Monothioglycerol (Wako), 1× chemically defined lipid concentrate (Invitrogen), 50 U/ml penicillin/50 μg/ml streptomycin] for 7 days. The cells were cultured in 150 μl of a medium per well. On 7th day of differentiation culturing, the medium was exchanged with a DFK medium [DMEM/F12 (Invitrogen) added with 7 g/1 glucose, 10% KSR, 50 U/ml penicillin/50 μg/ml streptomycin], and on 10th day, half the amount of the medium was exchanged with a DFNB medium [7 g/1 glucose, 1×N2 (Wako), 1×B27 (Invitrogen)] containing 10 ng/ml CNTF. On 13th day of culturing, cells were detached with 0.05% trypsin/EDTA, seeded on a culture dish (Falcon) which had been treated with poly-D-lysine/laminin so that the cell count became 4.8×10^6 cells per 10 cm culture dish, and cultured in a DFNB medium containing 10% FBS, 10 ng/ml CNTF, 50 ng/ml BDNF and 50 ng/ml NT3. The medium was exchanged every 3 days. On 25th day of differentiation culturing, cells were collected and pelletized by a centrifugation operation to remove the culture medium. Thereafter, the pellets were immediately frozen in liquid nitrogen, and stored at −80° C. until use.
The analysis was performed by the same method as that of Example 1.

The structures appear in SMILES notation.

On to `CC(=O)N[C@@H]1C(O)O[C@H](CO)[C@@H](O)[C@@H]1O` (stereo partly drawn) [ManNAc, N-acetyl-D-mannosamine], for which the “Level of Hcrt expression compared with Neu5Ac-added section” value is “high expression of Hcrt was observed”. Where the note is “cells collected on 25th day, FIG. 5”, the “Expression of Hcrt” value is recorded as “expression of Hcrt was recognized”.

The record behind these values is patent publication US9480695B2, “Methods for inducing orexin neurons and agent for treating narcolepsy or eating disorder” (THE UNIVERSITY OF TOKYO, priority 2011, dated 2016).
